Source: PMC4466525, “Design, Synthesis and Structure-Activity Relationship Studies of Novel Survivin Inhibitors with Potent Anti-Proliferative Properties” (PLoS ONE, 2015)

How the values were obtained:
A375 = assay: Cell viability (MTS) anti-proliferative assay, A375; assay type: cell-based; conditions: A-375, A375 human melanoma, 48 h treatment, n = 4, read-out: IC50 values ± SEM, A375
Procedure: (§1) The anti-proliferative effect of UC-112 and its analogs were tested in human melanoma (A375, M14 and M14/LCC6MDR1) and human prostate cancer (PC-3) cell lines. All the cell lines were purchased from ATCC (American Type Culture Collection, Manassas, VA). The cancer cells were cultured using the supplemented cell culture medium as described before at 37°C in a humidified atmosphere containing 5% CO2. 5000 cells in logarithm growing phase were seeded overnight into each well of a 96-well plate. Then the cells were continuously incubated with sequential diluted compound solution (10 nM to 100 μM, 100 μl per well) in cell culture medium.

PC-3 = assay: Cell viability (MTS) anti-proliferative assay, PC-3; assay type: cell-based; conditions: PC-3 human prostate cancer, 48 h treatment, n = 4, read-out: IC50 values ± SEM, PC-3
Procedure: as §1

M14/LCC6MDR1 = assay: Cell viability (MTS) anti-proliferative assay, multidrug-resistant M14/LCC6MDR1; assay type: cell-based, human
Procedure: as §1

M14 = assay: Cell viability (MTS) anti-proliferative assay, M14; assay type: cell-based; conditions: M14 human melanoma, 48 h treatment, n = 4, read-out: IC50 values ± SEM, M14
Procedure: as §1

survivin [1] = target: T1, survivin (Homo sapiens, UniProt O15392); assay: Western blotting of survivin level, A375 cells; assay type: cell-based
T1 construct: endogenous in cells; host or cells: A375 cells
T1 sequence (O15392 whole entry): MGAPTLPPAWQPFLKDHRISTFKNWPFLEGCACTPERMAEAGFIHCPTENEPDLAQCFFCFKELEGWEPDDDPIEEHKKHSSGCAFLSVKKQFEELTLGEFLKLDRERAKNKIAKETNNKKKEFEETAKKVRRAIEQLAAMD
Procedure: (§2) Lysates of A375 cells treated by the compound solution for 24 h were used to determine the change of IAP protein levels through western blotting. Primary rabbit antibodies against survivin, XIAP, cIAP1, cIAP2, livin and GAPDH were purchased from Cell Signaling Technology, Inc. (Danvers, MA) and used according to manufacture instructions as reported previously. Protein lane intensities were quantified by ImageJ software (US National Institutes of Health, Bethesda, MD).

survivin [2] = target: T1, survivin; assay: Western blotting of survivin level, PC-3 cells; assay type: cell-based; conditions: gradient increasing dose, 24 h
[3] = system: other IAPs (XIAP, cIAP1, cIAP2, livin); assay: Western blotting of other IAP levels; assay type: cell-based, human; conditions: 24 h, A375 and PC-3 cells
Procedure: as §2

IC50 (A375): 900 ± 100 nM
IC50 (PC-3): 900 ± 100 nM
Structure (SMILES): CCc1ccc(COCc2cc(CN3CCCC3)c(O)c3ncccc23)cc1 [4f, 5-(((4-ethylbenzyl)oxy)methyl)-7-(pyrrolidin-1-ylmethyl)quinolin-8-ol]
IC50 (M14/LCC6MDR1; Homo sapiens, 48 h, multidrug-resistant M14/LCC6MDR1 melanoma, 48 h treatment, MTS, n = 4, read-out: IC50 values ± SEM, M14/LCC6MDR1): 2700 ± 1000 nM
Resistance Index (M14/LCC6MDR1; IC50 on M14/LCC6MDR1 divided by IC50 on parental M14): 3.0
IC50 (M14): 900 ± 100 nM
IC50 values for survivin inhibition (survivin [1]; estimated from western blotting, A375 and PC-3 cells): low nanomolar range
Effect on survivin level, A375 (survivin [1]; gradient increasing dose, 24 h, A375 cells): dose-dependently suppressed survivin level
Effect on survivin level, PC-3 (survivin [2]): dose-dependently suppressed survivin level
Effect on levels of other IAPs [3]: minimally affected
